Source: EP1598069A2, “Pharmaceutical combination of ethinylestradiol and drospirenone for use as a contraceptive” (Schering Aktiengesellschaft, priority 1999, dated 2001)

Experiments:
[1] = Chemical stability under acid and alkaline conditions (statement); format: physicochemical
[2] = human, in vivo, po
Protocol: 42 healthy women between 18 and 35 years of age were included in an open-label crossover study after their informed consent had been obtained. The aim of the study was to investigate the relative bioavailability of drospirenone and ethinylestradiol from a tablet formulation containing 3 mg drospirenone and 0.03 mg ethinylestradiol with reference to an oral suspension containing 6 mg of drospirenone and 0.06 mg ethinylestradiol per vial.
The bioavailability was determined using serum concentrations of each active agent as parameters.

[3] = Solubility in water and aqueous buffers (statement); format: physicochemical; conditions: drospirenone: in water and aqueous buffers at various pH values
[4] = Absolute bioavailability of drospirenone after oral administration; format: in vivo, women

| stability under acid conditions ([1]; acid conditions) | stability under alkaline conditions ([1]; alkaline conditions) | relative bioavailability [2] [%] | solubility [3] | bioavailability ([4]; human, in vivo, oral administration of a microcrystalline suspension containing 3.13 mg drospirenone to 6 postmenopausal women) [%] | absolute bioavailability ([4]; oral administration of 2 mg drospirenone to 8 young healthy women) | SMILES |
| --- | --- | --- | --- | --- | --- | --- |
| rearranged to an inactive isomer | hydrolysed | 107 | sparingly soluble | 85 | 76%±13% | C[C@]12CCC(=O)C=C1[C@@H]1C[C@@H]1[C@H]1[C@@H]3[C@@H]4C[C@@H]4[C@@]4(CCC(=O)O4)[C@@]3(C)CC[C@@H]12 [drospirenone, 6β,7β;15β,16β-dimethylene-3-oxo-17α-pregn-4-ene-21,17-carbolactone] |
| – | – | 117 | sparingly soluble | – | – | C#C[C@]1(O)CC[C@H]2[C@@H]3CCc4cc(O)ccc4[C@H]3CC[C@@]21C [ethinylestradiol, 17α-ethinylestradiol] |
